# Measured values taken from patent US20210330611A1, “THERAPY FOR NEUROLOGICAL DISEASES/DISORDERS” (priority 2020, published 2021).
# Counter-ions that a name gives are not always drawn. Like-named read-outs stand apart in the source and are kept apart here.
# Columns and labels:
# [1] = tested on: primary rat microglia;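 as to Fibrin % cell toxicity: share of dead cells sized under 150 µm2 at 10 µM in fibrin-stimulated microglia HTS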
# [2] = tested on: fibrin- and LPS-induced microglia activation; test: cells; assay type: cell-based, rat
# [3] = tested on: primary rat microglia; remark: listed apart in the source;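 as to Fibrin % cell toxicity: share of dead cells sized under 150 µm2 at 10 µM in fibrin-stimulated microglia HTS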
# [4] = tested on: LPS-induced microglia activation; test: Image-based assay of LPS-induced microglia activation (HTS and dose response); assay type: cell-based, rat
# [5] = tested on: fibrin-induced microglia activation; test: Image-based assay of fibrin-induced microglia activation (HTS and dose response); assay type: cell-based, rat; conditions: for inhibition at 10 µM: Rattus norvegicus, Microglia, read-out: Fibrin % inhibition
# [6] = Rattus norvegicus, Microglia, 48 h, read-out: LPS % inhibition
# [7] = quadrant by fibrin and LPS inhibition in HTS of 1907 compounds
# [8] = Rattus norvegicus, Microglia, 48 h, primary microglia HTS, LPS stimulation; increased cell size (>800 μm^2) as marker of activation; read-out: LPS % inhibition
# [9] = primary microglia HTS, fibrin stimulation, increased cell size (>800 μm^2) as marker of activation
# [10] = Rattus norvegicus, Microglia, primary HTS, 10 μM, LPS-stimulated primary microglia; read-out: LPS % inhibition
# [11] = primary HTS, 10 μM, fibrin-stimulated primary microglia
# [12] = classification by fibrin and LPS inhibition in HTS
# [13] = primary microglia HTS, fibrin stimulation, cell size >800 μm2 as marker of activation
structure (smiles),measurement,setting,value
CCCc1cc(=O)[nH]c(=S)[nH]1 [Propylthiouracil],LPS % cell toxicity,[1]; rat,0%
same,Quadrant (FIG. 5b),[2],Q4
same,Fibrin % cell toxicity,[3]; rat,0%
same,inhibition at 10 µM,[4]; [6],8%
same,inhibition at 10 µM,[5],-4%
CC(C)C[C@H](NC(=O)[C@H](Cc1ccccc1)NC(=O)c1cnccn1)B(O)O [Bortezomib],LPS % cell toxicity,[1]; rat,56%
same,Quadrant (FIG. 5b),[2]; [7],Q2
same,Fibrin % cell toxicity,[3]; rat,86%
same,inhibition at 10 µM,[4]; [8],106%
same,inhibition at 10 µM,[5]; [9],106%
Clc1ccc(C(c2ccccc2Cl)C(Cl)Cl)cc1 (stereo not shown) [Mitotane],LPS % cell toxicity,[1]; rat,0%
same,Quadrant (FIG. 5b),[2]; [7],Q4
same,Fibrin % cell toxicity,[3]; rat,0%
same,inhibition at 10 µM,[4]; [8],-1%
same,inhibition at 10 µM,[5]; [9],-19%
CC(C(=O)O)c1ccc2c(c1)[nH]c1ccc(Cl)cc12 (stereo not shown) [Carprofen],LPS % cell toxicity,[1]; rat,0%
same,Quadrant (FIG. 5b),"[2]; primary HTS, 10 μM",Q4
same,Fibrin % cell toxicity,[3]; rat,0%
same,inhibition at 10 µM,[4]; [10],15%
same,inhibition at 10 µM,[5]; [11],-2%
CO[C@H]1/C=C/O[C@@]2(C)Oc3c(C)c(O)c4c(O)c(c(/C=N/N5CCN(C)CC5)c(O)c4c3C2=O)NC(=O)/C(C)=C\C=C\[C@H](C)[C@H](O)[C@@H](C)[C@@H](O)[C@@H](C)[C@H](OC(C)=O)[C@@H]1C [Rifampin],LPS % cell toxicity,[1]; rat,0%
same,Quadrant (FIG. 5b),[2],Q4
same,Fibrin % cell toxicity,[3]; rat,1%
same,LPS % inhibition,[4],20%
same,Fibrin % inhibition,[5],8%
CCN(CC)CCCC(C)Nc1c2ccc(Cl)cc2nc2ccc(OC)cc12 (stereo not shown) [Quinacrine],LPS % cell toxicity,[1]; rat,65%
same,Quadrant (FIG. 5b),[2]; [7],Q1
same,Fibrin % cell toxicity,[3]; rat,1%
same,inhibition at 10 µM,[4]; [8],118%
same,inhibition at 10 µM,[5]; [9],24%
N=c1ccn2c(n1)O[C@H]1[C@H](O)[C@@H](CO)O[C@H]12 [Ancitabine Hydrochloride],LPS % cell toxicity,[1]; rat,1%
same,Quadrant (FIG. 5b),"[2]; quadrant by fibrin and LPS inhibition, HTS at 10 μM",Q4
same,Fibrin % cell toxicity,[3]; rat,1%
same,inhibition at 10 µM,"[4]; Rattus norvegicus, Microglia, primary microglia HTS, LPS stimulation, compounds at 10 μM; read-out: LPS % inhibition",27%
same,inhibition at 10 µM,"[5]; primary microglia HTS, fibrin stimulation, compounds at 10 μM",-4%
CC[C@@H](CO)NC(=O)[C@@H]1C=C2c3cccc4[nH]cc(c34)C[C@H]2N(C)C1 [Methylergometrine],LPS % cell toxicity,[1]; rat,0%
same,Quadrant (FIG. 5b),[2]; [7],Q4
same,Fibrin % cell toxicity,[3]; rat,0%
same,inhibition at 10 µM,[4]; [8],7%
same,inhibition at 10 µM,[5]; [9],-43%
COc1cc(NC(C)CCCN)c2ncccc2c1 (stereo not shown) [Primaquine],LPS % cell toxicity,[1]; rat,0%
same,Quadrant (FIG. 5b),[2],Q4
same,Fibrin % cell toxicity,[3]; rat,0%
same,inhibition at 10 µM,[4]; [6],7%
same,inhibition at 10 µM,[5],-58%
O=C(Nc1ccc(C(=O)O)c(O)c1)c1ccccc1 [Benzoylpas],LPS % cell toxicity,[1]; rat,2%
same,Quadrant (FIG. 5b),[2],Q2
same,Fibrin % cell toxicity,[3]; rat,4%
same,inhibition at 10 µM,[4]; [6],87%
same,inhibition at 10 µM,[5],107%
Nc1nc2[nH]cc(CCc3ccc(C(=O)N[C@@H](CCC(=O)O)C(=O)O)cc3)c2c(=O)[nH]1 [Pemetrexed],LPS % cell toxicity,[1]; rat,0%
same,Quadrant (FIG. 5b),[2]; [12],Q4
same,Fibrin % cell toxicity,[3]; rat,0%
same,inhibition at 10 µM,"[4]; Rattus norvegicus, Microglia, 48 h; read-out: LPS % inhibition",9%
same,inhibition at 10 µM,[5]; [13],-8%
O=C(c1ccc(OCCN2CCCCC2)cc1)c1c(-c2ccc(O)cc2)sc2cc(O)ccc12 [Raloxifene],LPS % cell toxicity,[1]; rat,1%
same,Quadrant (FIG. 5b),[2]; [7],Q1
same,Fibrin % cell toxicity,[3]; rat,0%
same,inhibition at 10 µM,[4]; [8],60%
same,inhibition at 10 µM,[5]; [9],7%
"Cc1ccc(-c2nc3ccc(C)cn3c2CC(=O)N(C)C)cc1 [Zolpidem, Zolpidem Tartrate]",LPS % cell toxicity,[1],0%
same,Quadrant (FIG. 5b),[2],Q4
same,Fibrin % cell toxicity,[3],0%
same,LPS % inhibition,[4]; 10 µM,4%
same,Fibrin % inhibition,[5]; 10 µM,−12%
CC(C[N+](C)(C)C)OC(N)=O (stereo not shown) [Bethanechol],LPS % cell toxicity,[1]; rat,0%
same,Quadrant (FIG. 5b),"[2]; primary HTS, 10 μM",Q4
same,Fibrin % cell toxicity,[3]; rat,1%
same,inhibition at 10 µM,[4]; [10],15%
same,inhibition at 10 µM,[5]; [11],14%
CC(C)CC(N(C)C)C1(c2ccc(Cl)cc2)CCC1 (stereo not shown) [Sibutramine],LPS % cell toxicity,[1]; rat,0%
same,Quadrant (FIG. 5b),[2]; [12],Q4
same,Fibrin % cell toxicity,[3]; rat,1%
same,inhibition at 10 µM,"[4]; Rattus norvegicus, Microglia, 48 h, primary microglia HTS, LPS stimulation, cell size >800 μm2 as marker of activation; read-out: LPS % inhibition",8%
same,inhibition at 10 µM,[5]; [13],-12%
CCN(CC)CCOCCOC(=O)C1(c2ccccc2)CCCC1 [Carbetapentane Citrate],LPS % cell toxicity,[1]; rat,0%
same,Quadrant (FIG. 5b),"[2]; primary HTS, 10 μM",Q4
same,Fibrin % cell toxicity,[3]; rat,1%
same,inhibition at 10 µM,[4]; [10],7%
same,inhibition at 10 µM,[5]; [11],-13%
CN(C)C(=N)N=C(N)N [Metformin],LPS % cell toxicity,[1]; rat,0%
same,Quadrant (FIG. 5b),[2],Q4
same,Fibrin % cell toxicity,[3]; rat,0%
same,inhibition at 10 µM,[4]; [6],0%
same,inhibition at 10 µM,[5],-15%
